How the values were obtained:
VEGF111 mRNA [1] = experiment: VEGF111 mRNA in blood cells treated ex vivo, RT-PCR; assay type: cell-based, human; conditions: blood cells of a healthy donor, 1 μM, 6 and 24 hours
Description: FIG. 8: VEGF111 is expressed in blood cells treated with camptothecin (1 μM) ex vivo. Double arrowhead: internal standard. Vertical arrow indicates amplification products of VEGF111.
Blood was collected from a healthy donor, and cells were collected by centrifugation. Red blood cells were lyzed and the remaining cells were treated or not with camptothecin (1 μM) for 6 and 24 hours. Untreated cells were also investigated directly after collection. Total VEGF mRNA was measured by RT-PCR as described.

VEGF111 mRNA [2] = experiment: Induction of VEGF111 mRNA by genotoxic agents, RT-PCR; assay type: cell-based, human
Description: The indicated cells were treated with UV-B or camptothecin (30 mJ or 1 μM, respectively, except otherwise indicated) for 24 hours (except otherwise indicated) and VEGF and VEGF111 mRNA were measured by RT-PCR. (A) Polyacrylamide gel electrophoresis of RT-PCR products of VEGF (upper panel), VEGF111 (middle panel) and 28S rRNA (lower panel). Arrows in upper panel show the amplification product of VEGF111. The drawings on the right represent the exons (not to scale) in the corresponding VEGF isoforms. C: control cells; Cp: camptothecin treatment; M: 50 bp molecular weight marqueurs; R: cells rinsed with red phenol-free medium; UV: UV-B irradiation; -: non template control; arrowheads: RT-PCR products of synthetic RNA added to the test tubes to monitor reaction efficiency. (B to E) Dose-response analysis (B and D) and kinetic of induction (C and E) of VEGF111 mRNA level in MCF7 cells irradiated by UV-B (B and C) or treated with camptothecin (D and E). The expression of VEGF111 is expressed as the percentage of the signal corresponding to its mRNA taking the overall various VEGF isoforms mRNA, as measured in upper panel of (A) as 100%.
The RT-PCR amplifications were performed in an automated system (GeneAmp PCR System 2400 or 9600, Perkin Elmer, Norwalk, Conn.) using the GeneAmp Thermostable rTth Reverse Transcriptase RNA PCR kit (Perkin Elmer), 10 ng of total RNA and the different pairs of primers (5 pmole each, see Table 1). For amplification of VEGF isoforms mRNA and 28S rRNA, a known copy number of an internal standard RNA were included in each sample to monitor the efficiency of the reaction. The RT step (70° C., 15 min.) was followed by a 2 min. incubation at 95° C. for denaturation of RNA/DNA heteroduplexes, PCR amplification and final elongation for 2 min. at 72° C. The conditions for PCR amplification were 94° C. for 15 sec., 66° C. for 20 sec., 72° C. for 10 sec. for 28S rRNA and CD31 mRNA, or 94° C. for 20 sec, 66° C. for 30 sec. and 72° C. for one min for VEGF. RT-PCR products were resolved on 10% polyacrylamide gel and analysed using a Fluor-S MultiImager (BioRad) after staining with gelstar dye (FMC BioProducts, Rockland, Me.). Specific detection of VEGF111 isoform mRNA was performed as follow. mRNA was reverse transcribed using oligodT (Eurogentec, Seraing, Belgium) and Superscript II (Invitrogen) as described by the manufacturer. Reverse transcription (42° C., 50 min.) was followed by denaturation of the enzyme at 70° C. for 15 min. VEGF111 cDNA was amplified by PCR using 40 ng cDNA, the oligos P5 and P6 (Table 1) and Taq polymerase (Takara, Shiga, Japan). The conditions for PCR amplification were 94° C. for 15 sec., 70° C. for 20 sec.,72° C. for 10 sec.

CC[C@@]1(O)C(=O)OCc2c1cc1n(c2=O)Cc2cc3ccccc3nc2-1 [Camptothecin] was tested, and the “VEGF111 mRNA in blood cells” value (VEGF111 mRNA [1]) was “expressed”, the “expression of VEGF111” value (VEGF111 mRNA [2]; 1 μM, HaCat cells and MCF7 cells, by 24 hours, level similar to or higher than after UV-irradiation) was “induced” and the “time after which VEGF111 induction reached a plateau” value (VEGF111 mRNA [2]; MCF7 cells, camptothecin) was 24 h. For the same compound, the “time after which VEGF111 induction was already detected” value (VEGF111 mRNA [2]; MCF7 cells, camptothecin) was 6 h and the “VEGF111 induction, dose-response” value (VEGF111 mRNA [2]; MCF7 cells, with the concentration of camptothecin) was “progressively increased”.

— US20100287625A1, “VEGF VARIANTS” (UNIVERSITE DE LIEGE, priority 2006, published 2010)
